Patent US20060110385A1, “Means and methods for diagnosing and treating affective disorders” (Affectis Pharmaceuticals AG, priority 2003, published 2006)
Entries after “also recorded” stand apart in the source; their conditions may differ.

How the values were obtained:
P2X7R = molecular target: T1, P2X7R (Mus musculus, UniProt Q9Z1M0); test: Calcium influx into HT-22 cells (Oregon green AM ester); assay type: cell-based; conditions: 100 μM BzATP, 15 minutes
T1 construct: endogenous in cells; host or cells: HT-22 (immortalised mouse hippocampal cell line)
T1 sequence (Q9Z1M0 1-595): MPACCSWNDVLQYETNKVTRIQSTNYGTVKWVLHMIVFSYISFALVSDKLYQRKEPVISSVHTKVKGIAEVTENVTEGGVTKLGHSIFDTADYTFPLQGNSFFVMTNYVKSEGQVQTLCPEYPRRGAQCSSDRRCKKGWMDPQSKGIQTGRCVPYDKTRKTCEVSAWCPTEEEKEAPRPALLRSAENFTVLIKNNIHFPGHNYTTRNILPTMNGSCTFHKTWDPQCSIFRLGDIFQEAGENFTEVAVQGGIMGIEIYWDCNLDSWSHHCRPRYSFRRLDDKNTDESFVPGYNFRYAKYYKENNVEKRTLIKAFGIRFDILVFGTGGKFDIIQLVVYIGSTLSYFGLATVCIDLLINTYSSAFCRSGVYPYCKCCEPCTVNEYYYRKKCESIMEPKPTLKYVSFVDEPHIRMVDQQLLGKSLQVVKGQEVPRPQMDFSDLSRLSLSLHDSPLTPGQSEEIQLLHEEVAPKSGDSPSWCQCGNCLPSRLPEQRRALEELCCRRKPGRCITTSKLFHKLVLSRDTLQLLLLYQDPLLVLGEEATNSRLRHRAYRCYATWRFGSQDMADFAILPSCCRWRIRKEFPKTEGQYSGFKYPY
Excerpt: Since P2X7R is an ATP-gated ion channel which allows the entry of calcium and sodium ions into cells, a method for identifying P2X7R agonist was established by monitoring calcium influx into HT-22 cells. […] Calcium movement into the cells was visualised under a fluorescent microscope with a fluorescein filter (wavelength 492/517 nm). Oregon green AM ester is a fluorescent dye that binds to intracellular calcium.
Activation of P2X7R by the agonist was inhibited by oATP (FIG. 18) as illustrated by the absence of green fluorescence in the cells.

DBA/201a mouse strain = test: Porsolt's forced swim test after intrahippocampal BzATP; assay type: in vivo; conditions: 50 μM BzATP, 24 hours after injection
Excerpt: In the present example, the P2X7R agonist was directly injected into the hippocampus of mice. However, a P2X7R agonist agent or compound could also be delivered orally, subcutaneously, intravenously, intra-arterial, intranodal, intramedullary, intrathecal, intraventricular, intranasally, intrabronchial, transdermally, intrarectally, intraperitoneally, intramuscularly, intrapulmonary, vaginally, rectally, or intraocularly.
Four months old male mice were bilaterally implanted with guide cannulae (23 gauge, length 8 mm) by means of a stereotactic instrument (David Kopf Instruments). The coordinates, in relation to bregma, were −2.0 mm posterior, ±1.0 mm lateral, and −1.0 mm ventral. After surgery, the mice were allowed to recover for 10 to 12 days. […] Injections were performed using a 9 mm-30 gauge needle inserted into the guide cannulae and connected via tubing to a 10 μl Hamilton syringe.
The forced swim test is a standard test that measures primary stress-induced reductions in avoidance or escape, termed behavioural despair. The test is used to determine the effectiveness of antidepressants, test new pharmaceutical compounds and validate animal models of depression (Porsolt et al., Arch. Int. Pharmacodym. 229 (1977), 327-336; Porsolt, Rev. Neurosci. 11 (2000), 53-58; Rénéric et al., Behav. Brain Res. 136 (2002), 521-532; Page et al., Psychopharmacology 165 (2003), 194-201; Kelliher et al., Psychoneuroendocrinology 28 (2003), 332-347). The test consists of placing a mouse for a period of 5 minutes into a glass cylinder containing water. Under such circumstances, the mouse cannot touch the bottom of the cylinder and is thus forced to swim. Time, latency and frequency of struggling versus floating are scored as behavioural parameters. […] Increased struggling (i.e. active attempts to escape) indicates active coping behaviour that can be interpreted as an improvement of depression-like symptoms. For example, treatment with serotonergic antidepressants reduce the total time spent floating (Borsini, Neurosci. Biobehav. Rev. 19 (1995), 377-395; Redrobe and Bourin, Psychopharmacology 138 (1998), 198-206, and in parallel increases the time of active behaviour (i.e. swimming or struggling; Lucki et al., Psychopharmacology 155 (2001), 315-322).

mice = test: Open field test (locomotor activity) after BzATP; assay type: in vivo, mouse; conditions: 50 μM BzATP, 24 hours after injection, 30 minutes
Description: Locomotor activity was monitored for a period of 30 minutes using a video camera. Overall distance travelled by the animals during the testing period was then analysed by means of VideoMot2 computer software (TSE GmbH, Bad Homburg).

[1] = 1 μl each side, not supported statistically
[2] = 1 μl each side, statistically significant

Which results are given for “2′-3′-O-(4-Benzoylbenzoyl)adenosine 5′-triphosphate [BzATP]”?
calcium influx (green fluorescence) (P2X7R): Increase calcium influx; also recorded: increase in green fluorescence; time of struggling (DBA/201a mouse strain; 1 μl each side of hippocampus, statistically significant): increase; frequency of struggling (DBA/201a mouse strain; [1]): increase; latency of struggling (DBA/201a mouse strain; [1]): decrease; time of floating (DBA/201a mouse strain; [1]): decrease; frequency of floating (DBA/201a mouse strain; [2]): decrease; latency of floating (DBA/201a mouse strain; [2]): increase; locomotor activity (overall distance travelled) (mice): No difference in locomotor activity
